Experimental data reported in patent US3950374A, “Carbamate pesticide” (priority 1972, dated 1976).
In brackets after ≈: the same amount, converted by molar mass. Like-named read-outs stand apart in the source and are kept apart here.

Experiments:
Type in all cases: in vivo
[1] = tested on: smaller brown planthoppers (Lacdelphax striatellus); test: Lethal effect on smaller brown planthoppers (Test Example 1)
Experimental: Lethal effect on smaller brown planthoppers (Lacdelphax striatellus)
Rice plants (15 to 20 cm tall) 15 days after germination, are dipped for 1 minute into each aqueous dilute solution of the present compounds in the form of emulsifiable concentrates, and placed in large glass tubes separately after air-drying. Thereafter, 20 to 30 adult planthoppers are released therein and covered with a wire net. After 24 hours, the number of dead and live planthoppers are observed to calculate LC50. The number of the compounds in Table 1 correspond to those of the compounds mentioned above.

nematode = test: Effect on nematode (Test Example 6); conditions: 500 ppm active ingredient; after 24 hours
Experimental: 0.5 ml. of a nematode-containing aqueous solution separated from food is placed in a test tube with ground stopper containing 0.5 ml. of an aqueous dilute solution of each emulsifiable concentrate of the present compounds. The concentration of the active ingredient in the mixture is adjusted to 500 ppm. After 24 hours, the number of dead and live nematodes are observed microscopically to calculate the mortality rate.

[2] = tested on: larvae of northern house mosquito (Culex pipien pallens); test: Effect on mosquito larvae (Test Example 8)
Experimental: Effect on mosquito larvae.
200 ml. of an aqueous solution of each emulsifiable concentrate of the present compounds which is adjusted to the concentration of 1 ppm with pure water are placed in a 300 ml. beaker and 30 larvae of northern house mosquito (Culex pipien pallens) are released therein. the mortality rate is calculated.

[3] = tested on: smaller brown planthoppers (Loadelphax striatellus); test: Residual effect on smaller brown planthoppers (Test Example 11); conditions: 1000 fold dilute solution of 50 % emulsifiable concentrate; for Mortality after 4 days: after 4 days (residual effect); for Mortality after 7 days: after 7 days (residual effect)
Experimental: Residual effect on smaller brown planthoppers (Loadelphax striatellus).
From 18 to 23 rice plants are grown into a 3 - 4 leaves stage in each flower pot of 10 cm. in diameter, then a 1000 fold aqueos dilute solution of each 50 % emulsifiable concentrate of the present componds is applied thereto. After air-drying, each pot is covered with a wire cage, and 20 - 30 adult planthoppers are released therein, and after 24 hours the mortality rate is calculated. Furthermore, the planthoppers are released each day to investigate the residual effect of the present compounds.

[4] = tested on: rice stem borer (Chilo suppressalis); test: Lethal effect on rice stem borer (Test Example 5); conditions: 1000 fold dilute solution of 50 % emulsifiable concentrate; 4 days after application
Description: Lethal effect on rice stem borer (Chilo suppressalis).
Eggs just before hatching of the rice stem borer are applied in a ratio of 100/pot near the root of rice plants grown into the tillering stage in a 1/100,000 Wagner's pot. After the eggs hatched and the larvae enter into stems of rice plants, a 1000 fold dilute solution of each 50 % emulsifiable concentrate of the present compounds is applied by means of a turn table. The number of dead and live stem borers are observed to calculate the mortality rate 4 days after application.

[5] = tested on: green rice leafhoppers (Nephotettix cincpiceps); test: Effect on green rice leafhoppers in soil treatment (Test Example 4); conditions: 6 % granules, 6 kg./10 ares soil treatment; released after 3 days, observed after 24 hours
Experimental: Effect on green rice leafhoppers (Nephotettix cincpiceps) in soil treatment.
(§1) Each of 6 % granules of the present compounds is applied in a ratio of 6 kg./10 ares near the root of rice plants grown into the tillering stage in a 1/100,000 Wagner's pot. After 3 days, 30 adult leafhoppers are released and covered with a wire cage. After 24 hours, the number of dead and live leafhoppers are observed to calculate the mortality rate.

[6] = tested on: smaller brown planthoppers (Laodelphax striatellus); test: Effect on smaller brown planthoppers in soil treatment (Test Example 2); conditions: 6 % granules, 6 kg./10 ares soil treatment; released after 3 days, observed after 24 hours
Experimental: Effect on smaller brown planthoppers (Laodelphax striatellus) in soil treatment.
as §1, with “stage” for “stage in”, “planthoppers” for “leafhoppers”

[7] = tested on: green peach aphids (Myzus persicae); test: Effect on green peach aphids in soil treatment (Test Example 3); conditions: 5 % granules, 6 kg./10 ares soil treatment; after 3 days; chinese cabbages
Description: Effect on green peach aphids (Myzus persicae) in soil treatment.
Many of the aphids are made parasitic on chinese cabbages grown in a pot one month after sowing, and each of 5 % granules of the present compounds is applied in a ratio of 6 kg./10 ares near the root thereof. After 3 days, the number of dead and live aphids are observed to calculate the mortality rate.

[8] = tested on: tobacco cut worm (Spodoptera litura); test: Effect on tobacco cut worm (Test Example 7); conditions: 1000 fold dilute solution of emulsifiable concentrate, fourth instar larvae
Experimental: Effect on tobacco cut worm (Spodoptera litura).
A 1000 fold dilute solution of each emulsifiable concentrate of the present compounds is applied by means of a turn table to a potted chinese cabbage 60 days after sowing. After air-drying, fourth instar larvae of the tobacco cut worm are released and the mortality rate after 24 hours and 48 hours is calculated.

[9] = tested on: carmine mite (Tetranychus telarius); test: Acaricidal activity on carmine mite (Test Example 10); conditions: 1000 fold dilute solution of 40 % wettable powder, 10 ml./pot, after 10 days
Experimental: Acaricidal activity on carmine mite (Tetranychus telarius).
From 10 to 15 female carmine mites are made parasitic, in a ratio of 10 - 15/leaf, on leaves of potted kidney beans is (a leaves stage), 9 days after sowing, and kept at 27°C. For a week in a constant temperature room, then breeding of numerous carmine mites at various growth stages can be observed. At this time, a 1000 fold aqueous dilute solution of each 40 % wettable powder of the present compounds is sprayed by means of a turn table in a ratio of 10 ml./pot. After 10 days, the degree of damage of kidney beans and the degree of breeding of mites are observed and classified into five grades (-, +, […] , +++, ++++ ).
The degree of damage of kidney bean leaves:
-; damage is hardly observed, […]
and the degree of damage in between the two extremes is classified into three grades.
The degree of breeding of carmine mites: -; the number alive is less than 10, ++++; the alive are numerous, and the degree of breeding in between the two extremes is classified into three grades.

SMILES | LC50 ([1]; 24 h) | Mortality (nematode) | Mortality after 1 day [3] | Mortality after 4 days [3] | Mortality after 7 days [3] | Mortality [5] | further results
Cc1ccc(OC(=O)N(C)[S+]([O-])c2ccccc2)cc1C (stereo not drawn) [Compound 6] | 25 µg/mL (≈ 82.4 µM) | 100% | 90.0% | 63.3% | 50.0% |  | mortality at 1 ppm [2]: 70%
CCC(=NOC(=O)N(C)[S+]([O-])c1ccccc1)SC (stereo not drawn) [Compound 19] |  |  |  |  |  |  | Mortality [4]: 66.7%
Cc1ccc(OC(=O)N(C)[S+]([O-])c2ccc([N+](=O)[O-])cc2)cc1C (stereo not drawn) [Compound 10] | 33 µg/mL (≈ 94.7 µM) |  | 100% | 50.0% | 23.3% | 72.2% | 
CCCCCCCCCCCC[S+]([O-])N(C)C(=O)ON=C(C)SC (stereo not drawn) [Compound 14] |  | 100% |  |  |  |  | Mortality [6]: 90.0%; Mortality [7]: 76.5%; Mortality After 24 hrs. [8]: 90%; Mortality After 48 hrs. [8]: 100%
CN(C(=O)Oc1ccc(Cl)cc1)[S+]([O-])c1ccccc1 (stereo not drawn) [Compound 2] | 20 µg/mL (≈ 64.6 µM) | 79.8% | 96.7% | 75.0% | 20.0% | 75.0% | 
Cc1cc(C)cc(OC(=O)N(C)[S+]([O-])c2ccccc2)c1 (stereo not drawn) [Compound 5] | 18 µg/mL (≈ 59.3 µM) |  | 100% | 100% | 45.0% | 68.0% | 
CSC(C)=NOC(=O)N(C)[S+]([O-])c1ccccc1 (stereo not drawn) [Compound 15] |  | 100% |  |  |  | 70.0% | LC50 ([1]; rice plants dipped 1 minute in dilute emulsifiable concentrate, after 24 hours, read-out: LC50): 123 µg/mL (≈ 430 µM); Mortality [7]: 95.9%; Mortality [4]: 82.3%; mortality at 1 ppm ([2]; 1 ppm aqueous solution of emulsifiable concentrate, 30 larvae, time not stated, read-out: Mortality): 78.3%; Degree of breeding ([9]; carmine mites): - (the number alive is less than 10); Degree of damage ([9]; kidney bean leaves): -~+
Cc1cccc(OC(=O)N(C)[S+]([O-])c2ccccc2)c1C (stereo not drawn) [Compound 3] | 70 µg/mL (≈ 231 µM) |  | 100% | 64.0% | 50.0% |  | 
Cc1ccc([S+]([O-])N(C)C(=O)Oc2ccc(C)c(C)c2)cc1 (stereo not drawn) [Compound 8] | 50 µg/mL (≈ 158 µM) |  | 85.0% | 50.0% | 42.0% |  | mortality at 1 ppm [2]: 100%
Cc1ccc(OC(=O)N(C)[S+]([O-])c2ccc(Cl)cc2)cc1C (stereo not drawn) [Compound 11] | 40 µg/mL (≈ 118 µM) | 75.0% | 100% | 85.0% | 75.0% |  | mortality at 1 ppm [2]: 100%
Cc1cccc(OC(=O)N(C)[S+]([O-])c2ccccc2)c1 (stereo not drawn) [Compound 7] | 43 µg/mL (≈ 149 µM) |  | 86.7% | 65.0% | 46.7% | 96.7% | 
CCC[S+]([O-])N(C)C(=O)ON=C(C)SC (stereo not drawn) [Compound 13] |  | 100% |  |  |  |  | Mortality [7]: 96.7%; Mortality [4]: 83.2%; Mortality After 24 hrs. [8]: 100%; Mortality After 48 hrs. [8]: 100%
Cc1ccc([S+]([O-])N(C)C(=O)Oc2cccc(C)c2C)cc1 (stereo not drawn) [Compound 9] | 29 µg/mL (≈ 91.4 µM) |  | 100% | 62.3% | 30.0% | 83.3% | mortality at 1 ppm [2]: 66.7%
CCCSC(C)=NOC(=O)N(C)[S+]([O-])c1ccc(Cl)cc1 (stereo not drawn) [Compound 21] |  | 65.0% |  |  |  |  | 
Cc1ccc(OC(=O)N(C)[S+]([O-])c2ccccc2)c(C)c1 (stereo not drawn) [Compound 4] | 33 µg/mL (≈ 109 µM) |  | 100% | 83.3% | 53.3% |  | 
CNC(=O)Oc1ccc(C)c(C)c1 [Meobal, 3,4-dimethylphenyl-N-methylcarbamate, reference compound] |  |  | 100% | 53.2% | 10.0% |  | 
